System: adult brown tick (Rhipicephalus sanguineus)
Test: Assay 5: adult brown tick infestations on dogs
Type: in vivo, Rhipicephalus sanguineus on beagle dogs
Settings: 10 mg/kg topical spot-on
Experimental: The total number of live parasites present on each dog is determined for each interval, and this number is transformed using the natural logarithm transformation plus one (Ln count+1); addition of one to each count served to adjust for counts that are zero. Geometric mean (GM) group tick and flea counts are obtained via back-transformation of group mean transformed counts and subtracting one. The negative control group is used for comparison to treated groups for the calculation of percent efficacy (% reduction in live parasite counts). GM percent efficacy of treatments is calculated using the following formula: […]
The therapeutic (knockdown) and residual efficacy of the Example 1-4 compounds, when administered via topical spot-on at 10 mg/kg, is evaluated against adult brown tick (Rhipicephalus sanguine us) infestations on dogs. Twenty (20) beagle dogs are allocated to either an untreated, negative control group or one of four treated groups (n=4 dogs per group). Dogs are infested with approximately 50 unfed, adult R. sanguineus ticks on Days −1, 5, 12, 19 and 28. On Day 0, dogs are treated with Example 1-4 compound formulations (each, 50 mg/ml of technical active dissolved in a vehicle solution of propylene carbonate, benzyl alcohol, and isopropyl myristate), applied via topical spot-on in a volume so as to achieve a point dose of 10 mg/kg. Tick counts and classification are conducted on Days 2, 7, 14, 21 and 30. GM percent efficacy of treatments against ticks is calculated using the formula in Assay 3.

Structure (SMILES) | GM percent efficacy (Day 2, R. sanguineus) | Geometric Mean Group Live Tick Counts (Day 2, R. sanguineus) | GM percent efficacy (Day 7, R. sanguineus) | Geometric Mean Group Live Tick Counts (Day 7, R. sanguineus) | GM percent efficacy (Day 14, R. sanguineus) | Geometric Mean Group Live Tick Counts (Day 14, R. sanguineus) | GM percent efficacy (Day 21, R. sanguineus) | Geometric Mean Group Live Tick Counts (Day 21, R. sanguineus) | GM percent efficacy (Day 30, R. sanguineus) | Geometric Mean Group Live Tick Counts (Day 30, R. sanguineus)
CC[C@H]1CCC[C@H](NC(=O)c2ccncn2)[C@@H](C)C(=O)C2=C[C@@H]3[C@@H](C=C[C@@H]4C[C@@H](O[C@@H]5O[C@@H](C)[C@H](OC)C(OC)[C@H]5OC)C[C@@H]34)[C@@H]2CC(=O)O1 (stereo partly drawn) [Example 2, N-((2R,3aS,5aR,5bS,9S,14R,16aS,16bR)-9-ethyl-14-methyl-7,15-dioxo-2-(((2R,3R,5S,6S)-3,4,5-trimethoxy-6-methyltetrahydro-2H-pyran-2-yl)oxy)-2,3,3a,5a,5 b,6,7,9,10,11,12,13,14,15,16a,16b-hexadecahydro-1H-as-indaceno[3,2-d][1]oxacyclododecin-13-yl)pyrimidine-4-carboxamide] | (53.80) | 14.55 | (99.12) | 0.19 | (73.29) | 5.82 | (76.46) | 7.91 | (33.99) | 17.31
CC[C@H]1CCC[C@H](NC(=O)c2ccncc2)[C@@H](C)C(=O)C2=C[C@@H]3[C@@H](C=C[C@@H]4C[C@@H](O[C@@H]5O[C@@H](C)[C@H](OC)C(OC)[C@H]5OC)C[C@@H]34)[C@@H]2CC(=O)O1 (stereo partly drawn) [Example 3, N-((2R,3aS,5aR,5bS, 9S,13S,14R,16aS, 16bR)-9-ethyl-14-methyl-7,15-dioxo-2-(((2R,3R,5S,6S)-3,4,5-trimethoxy-6-methyltetrahydro-2H-pyran-2-yl)oxy)-2,3,3a,5a,5b,6,7,9,10,11,12,13,14, 15,16a,16b-hexadecahydro-1H-as-indaceno[3,2-d][1]oxacyclododecin-13-yl)isonicolina-mide] | (62.52) | 11.80 | (85.01) | 3.23 | (76.50) | 5.12 | (82.44) | 5.90 | (41.02) | 15.47
CC[C@H]1CCC[C@H](NC(=O)c2cc(C)on2)[C@@H](C)C(=O)C2=C[C@@H]3[C@@H](C=C[C@@H]4C[C@@H](O[C@@H]5O[C@@H](C)[C@H](OC)C(OC)[C@H]5OC)C[C@@H]34)[C@@H]2CC(=O)O1 (stereo partly drawn) [Example 4, N-((2R,3aS,5aR,5bS, 9S,13S,14R,16aS, 16bR)-9-ethyl-14-methyl-7,15-dioxo-2-(((2R,3R,5S,6S)-3,4,5-trimethoxy-6-methyltetrahydro-2H-pyran-2-yl)oxy)-2,3,3a,5a,5b,6,7,9, 10,11,12,13,14,15, 16a,16b-hexadecahydro-1H-as-indaceno[3,2-d][1]oxacyclododecin-13-yl)-5-methyl-isoxazole-3-carboxamide] | (67.71) | 10.17 | (96.60) | 0.73 | (82.25) | 3.86 | (81.13) | 6.34 | (26.88) | 19.17

Source: patent US20160115189A1, “PARASITICIDAL COMPOUNDS, METHODS, AND FORMULATIONS” (ELI LILLY AND COMPANY, priority 2013, published 2016)
